# Results: US20240057600A1, “METHODS FOR CONTROLLING OR PREVENTING INFESTATION OF PLANTS BY A PHYTOPATHOGENIC MICROORGANISM OF THE GENUS ASPERGILLUS” (priority 2020, published 2024)
# Like-named read-outs stand apart in the source and are kept apart here.
# Key:
# Aspergillus niger = assay: Peanut field trial, seed treatment, pest incidence 42 days after planting; type: in vivo, Aspergillus niger on Arachis hypogaea (peanut)
# Description: A peanut field trial was carried out on May 11, 2020 in Malpur, Gujarat, India, to evaluate the efficacy of different compounds against Aspergillus sp. fungi. The disease symptoms started to occur 4 weeks after planting and an assessment on disease incidence (% infected plants) was done 42 days after planting.
# Pest Incidence, 42 Days after Planting
# [1] = test system: Aspergillus flavus isolates; assay: In vitro mycelial growth inhibition assay on amended agar; type: cell-based; details: 120 h, 5 days incubation, 22 C
# Description: (§1) The sensitivity to cyclobutrifluram of 104 isolates of Aspergillus niger and 31 isolates of Aspergillus flavus was determined under in vitro lab conditions using a mycelial growth inhibition assay. Isolates of Aspergillus niger were retrieved from infected seeds or infected plants with clear symptoms of crown rot disease. Isolates of Aspergillus flavus were collected from infected seeds. The sensitivity to azoxystrobin of the isolates was determined under in vitro conditions using a conidial germination inhibition assay. Sensitivity tests were conducted in vitro using agar medium amended with cyclobutrifluram or azoxystrobin at the following concentrations: 0, 0.001, 0.01, 0.1, 1, and 10 mg a.i./L. The plates were incubated at room temperature (22 C). The mycelial growth of the colonies growing on plates amended or not with cyclobutrifluram was determined after 5 days of incubation. The conidial germination on agar plates amended or not with azoxystrobin was determined after 18 hours of incubation. A conidium was rated as germinated, if a normally developing germ tube had at least the length of a conidium. […] Effective dose values (EC50) are expressed in mg of cyclobutrifluram or azoxystrobin active ingredient/L. [table] [table]
# [2] = test system: Aspergillus niger isolates; assay: as above; type: cell-based; details: 120 h, 5 days incubation, 22 C
# Description: as §1
# [3] = test system: Aspergillus flavus isolates; assay: In vitro conidial germination inhibition assay on amended agar; type: cell-based; details: 31 A. flavus isolates, 18 hours incubation; for EC50 values, maximum: highest concentration used 10 mg a.i./L
# Description: as §1
# [4] = test system: Aspergillus niger isolates; assay: as above; type: cell-based; details: 104 A. niger isolates, 18 hours incubation; for EC50 values, minimum: 22 C; for EC50 values, maximum: highest concentration used 10 mg a.i./L
# Description: as §1
SMILES,"Pest incidence (LS Means) (Aspergillus niger; peanut GG 20, field trial Malpur, Gujarat, India, seed treatment, 42 days after planting, rates g AI/100 kg: VITAVAX 225, cyclobutrifluram 60, VIBRANCE MAXX 150, EVERGOL XTEND 30.8)","% efficacy based on disease incidence (Aspergillus niger; peanut GG 20, field trial, seed treatment, 42 days after planting, rates g AI/100 kg: VITAVAX 225, cyclobutrifluram 60, VIBRANCE MAXX 150, EVERGOL XTEND 30.8) [%]","Aspergillus niger pest incidence compared to the untreated and standard treatments (Aspergillus niger; treatment 3, 60 g AI/100 kg seed treatment, 42 days after application)","EC50 ([1]; 31 A. flavus isolates from infected peanut seeds, read-out: EC50 values, mean (geometric mean)) [µg/mL]","EC50 ([1]; 31 A. flavus isolates, read-out: EC50 values, maximum) [µg/mL]","EC50 ([1]; 31 A. flavus isolates, read-out: EC50 values, minimum) [µg/mL]","EC50 ([2]; 104 A. niger isolates from infected peanut seeds or plants, read-out: EC50 values, mean (geometric mean)) [µg/mL]","EC50 ([2]; 104 A. niger isolates, read-out: EC50 values, maximum) [µg/mL]","EC50 ([2]; 104 A. niger isolates, read-out: EC50 values, minimum) [µg/mL]","EC50 values, minimum ([3]; 22 C) [mg · ai/L]","EC50 values, maximum [3] [mg · ai/L]","EC50 values, maximum ([3]; listed as azoxystrobin)","EC50 values, minimum [4] [mg · ai/L]","EC50 values, minimum ([4]; listed as azoxystrobin) [mg · ai/L]","EC50 values, maximum [4] [mg · ai/L]","EC50 values, maximum ([4]; listed as azoxystrobin)"
"O=C(N[C@@H]1CC[C@@H]1c1ccc(Cl)cc1Cl)c1cccnc1C(F)(F)F (racemic) [Cyclobutrifluram, cyclobutrifluram]","0.42, % infected plants",97.03,significantly lower,0.108,0.7,0.0262,0.082,0.703,0.00924,,,,,,,
"CO/C=C(/C(=O)OC)c1ccccc1Oc1cc(Oc2ccccc2C#N)ncn1 [Azoxystrobin, azoxystrobin]",,,,,,,,,,0.003457,>10,more than 10 mg · ai/L,<0.001,0.000793,>10,more than 10 mg · ai/L
